# Where “and” joins values, the source holds several entries; their conditions need not be identical. Identical values can stand only once.
# Target: T1, Humanized mouse Aurora A (amino acids 107-403) (Mus musculus, UniProt P97477)
# T1 sequence (P97477 1-395 N164G/K218R/M280L): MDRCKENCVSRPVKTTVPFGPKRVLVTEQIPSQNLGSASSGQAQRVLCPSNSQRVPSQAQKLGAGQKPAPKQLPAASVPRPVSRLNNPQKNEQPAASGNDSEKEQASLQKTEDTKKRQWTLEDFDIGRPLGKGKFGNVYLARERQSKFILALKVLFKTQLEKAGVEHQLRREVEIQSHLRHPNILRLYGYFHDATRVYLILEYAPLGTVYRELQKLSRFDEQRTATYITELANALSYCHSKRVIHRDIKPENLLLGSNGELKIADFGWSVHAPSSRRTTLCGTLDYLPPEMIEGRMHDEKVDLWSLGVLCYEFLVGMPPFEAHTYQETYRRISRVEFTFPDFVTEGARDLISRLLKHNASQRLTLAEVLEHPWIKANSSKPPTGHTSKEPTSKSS
# Assay: Aurora A kinase assay (IMAP fluorescence polarization, FAM-PKAtide, 10 μM ATP)
# Type: biochemical
# Settings: Table 1; disulfide chemistry: bait, fragments, unpurified reaction mixtures and purified ligand; relative to concentration of fragment molecule; read-out: IC50
# Experimental: Aurora A Kinase Assay: Humanized mouse Aurora A (amino acids 107-403) was expressed in E. coli as described herein. […] The kinase reaction was initiated by adding Aurora A at a final concentration of 0.3 nM and incubated at 21° C. for 30 min. As a positive control for enzyme activity, the reaction mixture was added to DMSO and as a negative control for enzyme activity, the reaction mixture was added to Compound 1 at a final concentration of 5 μM. Both control reactions were conducted in triplicate. To detect phosphorylated PKAtide, the kinase reaction was combined with Progressive Binding Solution (1:400 Progressive Binding Reagent, 1× Buffer A, Molecular Devices) in a 1:3 ratio. The mixture was incubated for 30 min at 25° C. and the plate was scanned on an Analyst AD with excitation at 485 nm and emission at 530 nm. The fluorescence polarization value “P” is defined by equation (1) below, where “Fpar” is the fluorescence intensity parallel to the excitation plane and “Fperp” is the fluorescence intensity perpendicular to the excitation plane. The value “mP” was generated by multiplying the P value for each reaction well by a factor of 1000. The percent relative enzymatic activity (“Y” values) was calculated by normalizing the mP value for each well to the average positive control. Relative enzymatic activity values were plotted as a function of the logarithm of compound concentration (“x”) and […] values were generated in GraphPad Prism software version 4.01 using Equation (2), where “x” is the logarithm of compound concentration and “Top”, “Bottom” and “HillSlope” are curve parameters calculated by the software. IC50 values were calculated as the concentration of compound at which enzymatic activity is 50%.
# Fragment Library Pilot Screen. Fragment molecule plates were screened in 96-well plates at 5 μM in single-point format in the Aurora A Kinase assay as described above. All reaction mixtures resulting in greater than or equal to 50% inhibition of enzymatic activity were then tested in an IC50 assay. Original screening samples were used for follow-up IC50 experiments. LC/MS analysis was conducted on fragment assembly screening plates to confirm presence of desired test ligand in the reaction mixture. Confirmed hits were then resynthesized as purified thioether compounds and tested in an IC50 assay.
row,SMILES,IC50 [µM]
1,O=C(NCCSSCCNc1ncnc2ccsc12)Nc1cccc(C(F)(F)F)c1 [Compound 3],1.6
2,SCCNc1ncnc2ccsc12 [Compound 4],24
3,NCCSSCCNC(=O)Nc1cccc(C(F)(F)F)c1 [Compound 5],30
4,"NCCSSCCN [Cystamine, reference compound]",55

# Same assay, conditions: Table 2; thioether chemistry: bait, test fragment, unpurified reaction mixtures and purified ligand; relative to concentration of fragment molecule; read-out: IC50
row,SMILES,IC50
1,Clc1ncnc2ccsc12 [Compound 7],28 µM
2,NCCSSCCc1cnc(NC(=O)Nc2cccc(C(F)(F)F)c2)s1 [Compound 8],10 µM and 12.2 µM
3,"NCCSSCCN [Cystamine, reference compound]",> 500 µM

# Same assay, conditions: Table 4; purified resynthesized molecule; read-out: Resynthesized Hit/Analog IC50
row,SMILES,IC50 [µM]
1,COc1ccc(C(=O)Nc2ccccc2)cc1NC(=O)CCSc1ncnc(N)c1Br [Compound 15],0.12
2,COc1ccc(C(=O)Nc2ccccc2)cc1NC(=O)CCSCc1cnc2[nH]ccc2c1 [Compound 16],0.15
3,O=C(NCCSc1ncnc2[nH]ccc12)Nc1ccc(C(=O)O)c(O)c1 [Compound 17],0.4
4,Nc1ncnc(NCCc2cnc(NC(=O)Nc3cccc(C(F)(F)F)c3)s2)c1Br [Compound 18],0.005

# Same assay, conditions: Table 5; bait, fragment and disulfide-assembled molecules; relative to concentration of fragment molecule; read-out: IC50
row,SMILES,IC50 [µM]
1,CCCCNC(=O)c1cccc(NC(=O)CSSCCN)c1 [Compound 20],> 50
2,CCCCNC(=O)c1cccc(NC(=O)CCCCCNc2ncnc3ccsc23)c1 [Compound 21],4.1
3,NCCSSCCNC(=O)c1sc(C(F)(F)F)cc1O [Compound 22],> 50
4,O=C(NCCCCCNc1ncnc2ccsc12)c1sc(C(F)(F)F)cc1O [Compound 23],11.5

# Same assay, conditions: thioether chemistry; product mixture and purified compound; read-out: IC50
row,SMILES,IC50 [µM]
1,"O=C(Nc1cccc(C(F)(F)F)c1)Nc1ncc(CCSc2ncnc3ccsc23)s1 [Compound 6, reference compound]",0.005

# Target: T2, ALK (Invitrogen PV3867) (Homo sapiens, UniProt Q9UM73)
# T2 construct: purchased Invitrogen PV3867
# T2 sequence (Q9UM73 1058-1620 limits assumed): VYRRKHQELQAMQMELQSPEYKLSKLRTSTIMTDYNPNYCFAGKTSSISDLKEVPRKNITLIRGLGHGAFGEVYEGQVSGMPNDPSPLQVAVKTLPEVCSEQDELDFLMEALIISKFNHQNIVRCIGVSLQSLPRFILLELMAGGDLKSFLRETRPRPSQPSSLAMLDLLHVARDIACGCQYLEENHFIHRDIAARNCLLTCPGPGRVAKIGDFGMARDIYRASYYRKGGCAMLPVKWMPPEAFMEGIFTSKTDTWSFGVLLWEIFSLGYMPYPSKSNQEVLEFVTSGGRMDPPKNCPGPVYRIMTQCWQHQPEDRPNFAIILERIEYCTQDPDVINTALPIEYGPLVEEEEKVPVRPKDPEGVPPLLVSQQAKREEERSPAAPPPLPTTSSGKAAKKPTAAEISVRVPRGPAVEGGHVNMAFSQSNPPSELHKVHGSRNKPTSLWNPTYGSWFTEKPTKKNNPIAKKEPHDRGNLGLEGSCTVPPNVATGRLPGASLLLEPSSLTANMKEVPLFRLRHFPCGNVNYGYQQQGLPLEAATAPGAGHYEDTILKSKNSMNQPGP
# Assay: ALK kinase assay (LanthaScreen time-resolved FRET, 10 μM ATP)
# Type: biochemical
# Settings: Table 7; hit fragment alone, no bait; read-out: Fragment IC50
# Experimental: ALK kinase assays were conducted using the LanthaScreen® time-resolved FRET assay format (Invitrogen, Carlsbad Calif.). Assay conditions consisted of 15 pM (picomolar) ALK (Invitrogen PV3867), 10 μM ATP, and 100 nM substrate peptide FL-polyGT (Invitrogen PV3610) diluted in assay buffer (10 mM Tris pH 7.2, 10 mM MgCl, 1 mM DTT, 100 μM Na2OVO4. 0.01% Triton® X-100, 0.05% Casein). Control compounds and fragment-assembly reaction mixtures were diluted in DMSO to generate stock compounds at 20-fold final concentration. For IC50 assays, fragment-assembly reaction mixtures were titrated three-fold in DMSO and diluted 20-fold into the assay mixture. As a positive control for enzyme activity, the reaction mixture was added to DMSO, and, as a negative control for enzyme activity, the reaction mixture was added to staurosporine (Sigma) at a final concentration of 20 μM.
# Fragment Library Pilot Screen. Fragment-assembly reaction mixtures were screened in 384-well plates at a concentration approximating 5-fold lower than that of the purine-mimetic bait fragment IC50 value, in single-point format in the ALK assay as described above. Reaction mixtures resulting in greater than or equal to 50% inhibition of enzymatic activity were then confirmed in single-point format, or tested in an IC50 assay. LC/MS analysis was conducted on fragment assembly screening plates to confirm the presence of desired test ligand in the reaction mixture.
row,SMILES,IC50 [µM]
1,O=C(CS)Nc1ccc(Cl)cc1C(F)(F)F,1.62
2,COc1cccc(C)c1NC(=O)NCCS,6.64
3,O=C(CS)N1CCCN(c2nc3ccc(Cl)cc3s2)CC1 [Compound 32],2

# Same assay, conditions: read-out: IC50
row,SMILES,IC50 [µM]
1,COc1ccccc1Nc1ncc(Cl)c(NCCS)n1 [Compound 26],0.5
2,CC(C)S(=O)(=O)c1ccccc1Nc1nc(NCCS)ncc1Cl [Compound 27],0.25
3,CNc1ncc(Cl)c(Nc2cccc(CCl)c2)n1 [Compound 28],3.75
4,CNc1ncc(Cl)c(CCl)n1 [Compound 29],7.8

# Target: T3, Aurora A (Homo sapiens, UniProt O14965)
# T3 sequence (O14965 1-403): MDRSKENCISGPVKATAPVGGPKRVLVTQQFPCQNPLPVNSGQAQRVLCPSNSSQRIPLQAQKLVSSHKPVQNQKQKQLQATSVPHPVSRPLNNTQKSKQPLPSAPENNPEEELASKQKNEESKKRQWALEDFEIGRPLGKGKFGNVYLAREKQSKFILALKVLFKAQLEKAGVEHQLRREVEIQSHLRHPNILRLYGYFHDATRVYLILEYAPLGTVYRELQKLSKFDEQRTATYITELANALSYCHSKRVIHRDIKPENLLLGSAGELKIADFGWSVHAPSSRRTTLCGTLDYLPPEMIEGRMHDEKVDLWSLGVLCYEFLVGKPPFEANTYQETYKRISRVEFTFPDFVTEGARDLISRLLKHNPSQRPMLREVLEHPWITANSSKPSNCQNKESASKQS
# Assay: Aurora A activity in cell based assays
# Settings: inhibition of Aurora A activity in cell based assays
row,SMILES,EC50 [µM]
1,COc1ccc(C(=O)Nc2ccccc2)cc1NC(=O)CCSc1ncnc(N)c1Br [Compound 15],1
2,Nc1ncnc(NCCc2cnc(NC(=O)Nc3cccc(C(F)(F)F)c3)s2)c1Br [Compound 18],0.05
